Where two headings read alike, the source gives them in different places.
Columns and labels:
[1] = target: T1, full-length human Cal1 (Homo sapiens (Human), UniProt P07384); assay: Calpain inhibition FRET assay; type: biochemical; conditions: Table 3, 20 min incubation, FRET substrate
[2] = test system: primary neurons; assay: LD50 in primary neurons; type: cell-based; conditions: YES = LD50 ≧ 50 μM in primary neurons
[3] = target: T1, full-length human Cal1; assay: Calpain inhibition FRET assay; type: biochemical
Description: Calpain activity was measured using full-length human Cal1 in the presence of a FRET substrate. IC50 values were approximated by co-incubation of varying concentrations of the appropriate inhibitor (10, 100, 500, 1000 nM) in the presence of the FRET substrate (DABCYL)TPLK-SPPSPR-(EDANS) (SEQ ID NO: 5) and activation buffer. […] A peptide inhibitor, Z-LLY-FMK (SEQ ID NO: 6), was used as a positive control.
The Calbiochem InnoZyme activity kit was used for measuring the inhibition effect inhibitors on human erythrocyte calpain 1 activity. […] 20 μM of the FRET substrate, 10 nM of native Cal1, and 20 μM TCEP (reducing agent) were added to the reaction mixture containing assay buffer (Tris [10 mM], NaCl [100 mM], pH 7.4). Cal1 was activated by the addition of 10 μM calcium. Cleavage of the scissile bond amide bond, K-S, releases the fluorophore (EDANS) from the internal quenching molecule (DABCYL), resulting in an increase in fluorescence measured at 320 nm excitation and 480 nm emission wave lengths for 30 min. Each inhibitor was added to the reaction mixture at varying concentrations (10 nM, 100 nM, 1 μM, and 10 μM) to detect inhibition of Cal1 and reduction in fluorescence was measured by 96 well-plate reader. Approximate IC50 values of each compound were generated using linear regression within Graphpad Prism Software.

[4] = test system: Cal I; assay: Relative selectivity for Cal I (E64 = 1.0), Table 2; type: biochemical; conditions: relative to E64 = 1.0
[5] = test system: APP/PS1 mice; assay: Behavioral rescue assays (contextual fear memory, 2-day RAWM reference memory); type: in vivo
Text: APP/PS1-vehicle: n=15; APP/PS1-67: n=6; APP/PS1-30a: n=10; WT-vehicle: n=15; WT-67=5; WT-30a: n=8, APP/PS1-33: n=11; WT-33: n=8, APP/PS1-50: n=10; WT-50: n=8. P<0.05 in all transgenic groups treated with compound compared to their respective vehicle-treated transgenics.
APP/PS1-vehicle: n=17; APP/PS1-67: n=9; APP/PS1-30a: n=10; WT-vehicle: n=18; WT-67=9; WT-30a: n=9, APP/PS1-33: n=10; WT-33: n=9, APP/PS1-50: n=11; WT-50: n=9.
The ability of compounds to rescue the defects in associative and reference memory in 3 month old APP/PS1 animals was assessed. Capability of ameliorating the defects in contextual fear memory was tested via i.p. administration (FIG. 12). In the 2-day RAWM test, daily injections of the 67, 30a, 33 and 50 from the 2nd month of age were beneficial against the loss of contextual fear memory and reference memory.
Impact of chronic treatment on against memory loss in older APP/PS1 mice (7 months of age) with a more severe plaque load was also investigated. Compounds 67, 33 and 50 were beneficial against memory impairment following chronic administration (FIG. 13).
The ability of a prodrug to rescue the defects in associative and reference memory in 3 month old APP/PS1 animals was assessed. […] Thus, the esterification seems to improve PK but it spoils PD parameters. Compound 89 ameliorates both LTP and memory in 3 month old APP/PS1 mice (FIG. 15). Daily treatment with 89 from the age of 2 months until 3 months ameliorated the defect in LTP (A) contextual fear memory (B) and reference memory (C) in APP/PS1 mice. n=10 for all groups. P<0.05 in transgenics treated with compound compared to their respective vehicle-treated transgenics.

[6] = Acute and chronic toxicity, maximum tolerated dose; type: in vivo; conditions: mice; for MTD: mouse, in vivo, no malaise or death
Text: For evaluation of acute and chronic toxicity we measured the maximum tolerated dose (MTD) in mice for 30a, 33 and 50.

[7] = Plasma pharmacokinetics after i.p. administration; type: in vivo; conditions: ICR mice; for time of peak plasma concentration: i.p., 30a 7.57, 33 7.86, 50 7.83 mg/kg; for half-life / bioavailability: mouse, ip, plasma; for bioavailability: after i.p. administration, read-out: absolute bioavailability
Description: Plasma concentrations of 30a, 33 and 50 were determined by LC-MS/MS after i.p. administration to ICR mice. The plasma concentrations at each sampling time are shown on FIG. 10. […] Indeed, following i.p. administration of 30a (7.57 mg/kg), 33 (7.86 mg/kg) and 50 (7.83 mg/kg), the peak plasma concentration occurred at 0.25, 0.5 and 0.125 h after dosing, respectively. […] The respective half-lives were ˜0.6 hrs, ˜1.1 hrs and ˜0.6 hrs.

[8] = test system: calpain-generated spectrin fragments; assay: Spectrin proteolytic degradation products in hippocampi, western blot; type: in vivo; conditions: for prevention of spectrin cleavage by calpains in hippocampi: i.p. treatment for 12 days, doses as for PK
Description: Studies were performed to determine capability of lowering levels of spectrin proteolytic degradation products in hippocampi from adult animals. Using western blot analysis, prevention of calpain-generated spectrin fragments was checked following i.p. treatment for 12 days with 30a, 33 and 50 at the same concentrations used for PK assessment. The array of vehicle samples was obtained by loading samples with 5, 10, 15, and 20 μg total protein/lane. Samples from compound treated animals were loaded at 15 μg/lane.

[9] = test system: Cal1cat vs CathB; assay: Competition assay for Cal1 vs CathB using the biotinylated epoxide probe; type: binding, rat
Description: Anti-biotin western blotting of Cal1cat (Lane 6) or CathB (Lane 7) after incubation with 27 show the expected immunoreactivity of the covalently modified proteins. […] Densitometric analysis, using means from triplicate immunoblots, was used to estimate the modification of each protein by 27 in the presence of inhibitors relative to control (Lane 1: ratio=1.0).
Cal1cat was used in place of the full length enzyme to avoid autocatalysis.
Cal1cat and CathB were pre-treated with inhibitors for 10 min, followed by a 20 min incubation with the biotinylated epoxide, 27, as illustrated in FIG. 4. […] A more quantitative estimate of selectivity was achieved by comparison of band intensities.
The appropriate inhibitor (5 μM) was pre-incubated in a mixture containing Cal1cat (2 μM), CathB (2 μM), TCEP (1 mM), and Ca^2+ (30 μM) for 10 min at 37° C. […] (5 μM) was then added and the mixture incubated an additional 20 min. The reaction was quenched with EDTA (10 μM) and samples were ran using 4-16% SDS PAGE gel, subsequently transferred to PVDF membrane and visualized by Pierce ECL (Enhanced chemiluminescent) western blotting substrate, intensity of each blot was calculated using densitometry software. Relative inhibition of each enzyme was calculated with respect to enzyme activity in the absence of inhibitor. Inhibitor preference to Cal1cat with respect to CathB, was calculated by dividing relative Cal1cat inhibition with relative CathB inhibition of that particular inhibitor.

[10] = test system: Aβ-induced LTP impairment; assay: LTP rescue test; conditions: assessed at 650 nM
Description: Residual levels of potentiation were averaged during the last 5 min of LTP.

[11] = target: papain (Carica papaya (Papaya), UniProt P00784); assay: biochemical; type: biochemical
Text: (§1) Papain is representative of a family of typically lysosomal or secreted cysteine proteases, including the human cathepsins (B, C, F, H, K, L1-2, O, S, W, Z). […] Several methods have been reported in the literature for detailed kinetic analysis of the irreversible inhibition of cysteine proteases, including Cal1. […] (SEQ ID NO: 8). Using this substrate, kinetic parameters were derived using the method of Davies and co-workers, whereby “progress curves” were initially obtained measuring product formation as a function of time and fitted to y=P∞*(1−e^(−k*x)) (FIG. 7) (Cuerrier, D. et al., J Biol Chem 2007, 282, 9600-11; herein incorporated by reference in its entirety). […] Kinetic parameters (ki, KI, ki/KI) were obtained from double reciprocal plots (FIG. 7).
(§2) Full length porcine calpain (156 nM), or papain (236 pM) was added to a solution of 100 mM NaCl, 50 mM HEPES, pH 7.6, 1 mM TCEP, 30 μM Suc-LLVY-AMC (SEQ ID NO: 8) substrate, and inhibitor (0.5 to 50 μM). Calpain reactions also contained CaCl2 (1 mM and 100 mM for porcine and rat respectively). Both substrate and inhibitors were dissolved in acetonitrile/DMSO (1:1) with the exception of E-64, dissolved in water. Organic solvent remained <2% in all reactions, and most often <1%. Reactions were carried out in microtiter 96-well plates, with 150 μL per well, 30° C., and product formation was monitored over time by fluorescence (Ex/Em 346/444 nm, with 420 nm cutoff filter). Kinetic values of kobs were determined via non-linear regression using one-phase association analysis and linear plots of 1/kobs vs. 1/[I] provided kinetic constants ki and KI.

[12] = target: Full length porcine calpain (Sus scrofa (Pig), UniProt P35750); assay: Calpain inhibition kinetics studies (Suc-LLVY-AMC substrate); type: biochemical
Text: as §1, §2

[13] = Table 2, approximate IC50, read-out: Cal I IC50
[14] = 3 month old APP/PS1 mice, 2-day RAWM, daily from 2 months
[15] = 3 month old APP/PS1 mice, daily i.p. from 2 months
[16] = APP/PS1 mice, daily treatment from 2 until 7 months
[17] = ki/Ki calculated relative to E-64
[18] = mean ± S.D. of triplicate experiments

Full length porcine calpain, sequence (P35750 whole entry): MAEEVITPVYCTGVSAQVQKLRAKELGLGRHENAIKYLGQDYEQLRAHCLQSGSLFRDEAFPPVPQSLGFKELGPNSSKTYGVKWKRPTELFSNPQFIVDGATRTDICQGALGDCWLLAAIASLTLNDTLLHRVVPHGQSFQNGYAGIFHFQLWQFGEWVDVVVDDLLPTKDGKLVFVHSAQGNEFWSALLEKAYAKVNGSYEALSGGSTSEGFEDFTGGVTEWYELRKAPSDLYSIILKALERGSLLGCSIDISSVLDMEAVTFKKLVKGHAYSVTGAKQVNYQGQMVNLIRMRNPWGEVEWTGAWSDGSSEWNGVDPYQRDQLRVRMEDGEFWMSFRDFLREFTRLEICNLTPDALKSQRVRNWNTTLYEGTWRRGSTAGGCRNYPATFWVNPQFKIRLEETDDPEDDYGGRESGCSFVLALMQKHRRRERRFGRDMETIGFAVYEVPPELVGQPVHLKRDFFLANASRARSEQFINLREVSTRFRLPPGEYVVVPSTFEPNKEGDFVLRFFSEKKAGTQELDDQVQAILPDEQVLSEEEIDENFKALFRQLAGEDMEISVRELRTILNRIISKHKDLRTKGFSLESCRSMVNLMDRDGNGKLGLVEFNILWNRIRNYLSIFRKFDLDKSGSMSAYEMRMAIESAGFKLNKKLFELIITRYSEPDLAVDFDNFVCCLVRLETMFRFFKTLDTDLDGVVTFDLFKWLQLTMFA
Full length porcine calpain, sequence (P04574 whole entry partner): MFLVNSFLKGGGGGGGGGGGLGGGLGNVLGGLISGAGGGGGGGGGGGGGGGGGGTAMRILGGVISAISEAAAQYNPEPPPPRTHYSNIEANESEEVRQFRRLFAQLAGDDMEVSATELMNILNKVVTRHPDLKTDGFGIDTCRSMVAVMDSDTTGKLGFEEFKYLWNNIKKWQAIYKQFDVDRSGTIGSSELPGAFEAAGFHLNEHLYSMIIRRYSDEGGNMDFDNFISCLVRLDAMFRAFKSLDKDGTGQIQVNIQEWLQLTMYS
T1 sequence (P07384 whole entry): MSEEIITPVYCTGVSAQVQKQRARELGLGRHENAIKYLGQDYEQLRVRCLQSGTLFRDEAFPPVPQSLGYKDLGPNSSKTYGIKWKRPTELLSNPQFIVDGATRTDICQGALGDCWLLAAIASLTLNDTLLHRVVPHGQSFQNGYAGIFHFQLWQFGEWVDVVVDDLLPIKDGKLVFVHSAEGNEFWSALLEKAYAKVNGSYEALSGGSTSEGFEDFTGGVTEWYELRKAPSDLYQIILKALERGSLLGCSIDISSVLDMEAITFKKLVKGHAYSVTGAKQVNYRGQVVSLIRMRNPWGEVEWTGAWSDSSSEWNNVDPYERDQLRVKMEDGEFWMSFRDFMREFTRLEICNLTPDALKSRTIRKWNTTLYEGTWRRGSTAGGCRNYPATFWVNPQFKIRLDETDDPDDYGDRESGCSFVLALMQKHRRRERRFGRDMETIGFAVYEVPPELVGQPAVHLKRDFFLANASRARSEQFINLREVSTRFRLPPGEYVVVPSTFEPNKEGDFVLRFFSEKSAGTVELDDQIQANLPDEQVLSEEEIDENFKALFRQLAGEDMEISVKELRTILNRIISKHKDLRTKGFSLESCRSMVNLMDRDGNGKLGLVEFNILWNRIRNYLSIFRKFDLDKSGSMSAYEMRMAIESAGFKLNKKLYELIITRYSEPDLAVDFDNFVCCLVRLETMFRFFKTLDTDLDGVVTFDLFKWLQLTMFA
T1 sequence (P04632 whole entry partner): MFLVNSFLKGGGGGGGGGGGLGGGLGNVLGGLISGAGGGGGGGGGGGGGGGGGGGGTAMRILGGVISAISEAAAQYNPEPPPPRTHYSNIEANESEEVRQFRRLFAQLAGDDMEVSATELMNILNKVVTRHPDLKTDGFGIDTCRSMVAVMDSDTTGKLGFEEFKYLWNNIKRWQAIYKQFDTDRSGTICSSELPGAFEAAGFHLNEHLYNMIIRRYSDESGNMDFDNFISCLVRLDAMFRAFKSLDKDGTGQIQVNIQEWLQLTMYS
papain, sequence (P00784 134-345): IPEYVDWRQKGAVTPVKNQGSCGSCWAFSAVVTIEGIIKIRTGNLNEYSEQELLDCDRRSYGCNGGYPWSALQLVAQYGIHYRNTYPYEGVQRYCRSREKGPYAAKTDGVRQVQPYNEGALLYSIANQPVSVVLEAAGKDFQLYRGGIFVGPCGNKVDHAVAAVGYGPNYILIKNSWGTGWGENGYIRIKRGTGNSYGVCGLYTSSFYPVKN

Structure (SMILES) | IC50 [1] [nM] | LD50 ≧ 50 μM primary neurons [2] | IC50 [3, 13] [nM] | Relative selectivity for Cal I E64 = 1.0 [4] | reference memory [5, 14] | contextual fear memory [5, 15] | contextual fear memory [5, 16] | reference memory [5, 16] | MTD [6] [mg/kg] | time of peak plasma concentration [7] [h] | half-life [7] [min] | bioavailability [7] [%] | prevention of spectrin cleavage by calpains in hippocampi [8] | also measured
CC(C)C[C@H](NC(=O)[C@H]1O[C@@H]1C(=O)O)C(=O)NCCCCNS(=O)(=O)c1ccc(F)cc1 [Compound 25, (2S,3S)-3-((S)-1-(4-(4-fluorophenylsulfonamido)butylamino)-4-methyl-1-oxopentan-2-ylcarbamoyl)oxirane-2-carboxylic acid] | 150 | YES | 100 | 0.9 | – | – | – | – | – | – | – | – | – | –
CC(=O)NCCCCNC(=O)[C@H](CC(C)C)NC(=O)C1OC1c1ccccc1 (some centres unmarked) [Compound 61] | – | YES | ~1000 | 0.3 | – | – | – | – | – | – | – | – | – | –
O=C(Nc1nc(-c2ccc(F)cc2)cs1)C(Cc1cnc[nH]1)NC(=O)[C@H]1O[C@@H]1C(=O)O (stereo partly drawn) [Compound 30a, (2S,3S)-3-(1-(4-(4-fluorophenyl)thiazol-2-ylamino)-3-(1H-imidazol-4-yl)-1-oxopropan-2-ylcarbamoyl)oxirane-2-carboxylic acid] | – | – | 100 | – | beneficial | beneficial | ameliorated | ameliorated | 100 | 0.25 | ~36 | 80.4 | less efficient at preventing the spectrin cleavage | chronic toxicity, histopathology ([6]; chronic treatment at MTD): nephrotoxicity was noticed; blocking of active site modification by probe 27 (western blot signal) ([9]; 10 min pre-treatment, then 20 min with 27): little change in the CathB signal; selectivity for Cal1cat (ratio of Cal1cat versus CathB band intensities) ([9]; ratio for probe 27 alone set as 1.0, inhibitor 5 μM): highest selectivity; IC50 ([3]; Cal1, values stated in text, read-out: IC50): ~100 nM
O=C(NCc1cn(-c2ccc(F)cc2)nn1)[C@H](Cc1cscn1)NC(=O)[C@H]1O[C@@H]1C(=O)O [Compound 50, (2S,3S)-3-((S)-1-((1-(4-fluorophenyl)-1H-1,2,3-triazol-4-yl)methylamino)-1-oxo-3-(thiazol-4-yl)propan-2-ylcarbamoyl)oxirane-2-carboxylic acid] | 100 | – | 125 | – | beneficial | beneficial | ameliorated | ameliorated | 200 | 0.125 | ~36 | 41.3 | dramatically reduced the amount of fragments | memory impairment ([5]; 7 month old APP/PS1 mice, chronic administration): beneficial; brain penetration ([8]; inferred from hippocampal spectrin cleavage): capable of effectively penetrating the brain; potency for LTP rescue compared with E64 [10]: surpassed E64; Cal1 inhibition (in words) [3]: potent activity; Ki ([11]; apparent equilibrium constant, read-out: K1 Papain): 19200 nM; ki Papain ([11]; inhibition rate): 12.7 s⁻¹; rel Papain [11, 17]: 0.12; 10^−5 × ki/Ki Papain [11, 18]: 6.62 ± 0.74; Relative Selectivity ([12]; Cal1 over papain, ki/Ki relative to E-64 set at 1.0): 9.3; Ki ([12]; apparent equilibrium constant, full length Cal1, read-out: K1 Calpain1): 2900 nM; ki Calpain1 ([12]; inhibition rate, full length Cal1): 0.10 s⁻¹; relative selectivity for inhibition of Cal1 over papain (in words) ([12]; ki/Ki as measure, compared with E-64): Cal1 selectivity; rel Calpain1 [12, 17]: 1.1; 10^−4 × ki/Ki Calpain1 [12, 18]: 3.31 ± 0.32
CC(C)C[C@H](NC(=O)[C@H]1O[C@@H]1C(=O)O)C(=O)NCCCCNC(=O)CCCCC1CCSS1 (stereo partly drawn) [Compound 26, (2S,3S)-3-((2S)-1-(4-(5-(1,2-dithiolan-3-yl)pentanamido)butylamino)-4-methyl-1-oxopentan-2-ylcarbamoyl)oxirane-2-carboxylic acid] | 100 | YES | 150 | 1.6 | – | – | – | – | – | – | – | – | – | –

From patent US9403843B2, “Cysteine protease inhibitors and uses thereof” (The Trustees of Columbia University in the City of New York, priority 2012, dated 2016)
